# Assay results from patent publication US12286429B2, “5-oxo-1,2,3,5,8,8a-hexahydroindolizine-3-carboxamide derivatives useful as a factor XIa inhibitors” (Janssen Pharmaceutica NV, priority 2021, dated 2025).
# Assays:
# Factor XIa = Factor XIa (Homo sapiens, UniProt P03951); test: Factor XIa inhibition assay utilizing a fluorophore-quencher pair peptide substrate (FLINT); type: biochemical; settings: 11-point, 3-fold serial dilution, top 100 nM; 30 min preincubation; 15 μM 5Fam-KLTRAETV-K5Tamra substrate; kinetic reads over 30 min; read-out: FXIa Inhibition IC50
# Factor XIa, sequence (P03951 388-625 limits assumed): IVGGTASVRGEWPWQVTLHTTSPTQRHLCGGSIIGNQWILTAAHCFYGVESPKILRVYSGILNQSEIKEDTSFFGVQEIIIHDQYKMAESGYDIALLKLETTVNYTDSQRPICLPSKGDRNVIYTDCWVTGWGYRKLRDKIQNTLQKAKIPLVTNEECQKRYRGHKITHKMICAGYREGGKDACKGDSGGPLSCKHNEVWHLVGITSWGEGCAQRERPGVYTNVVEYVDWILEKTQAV
# Factor XIa, sequence (P03951 19-387 partner limits assumed): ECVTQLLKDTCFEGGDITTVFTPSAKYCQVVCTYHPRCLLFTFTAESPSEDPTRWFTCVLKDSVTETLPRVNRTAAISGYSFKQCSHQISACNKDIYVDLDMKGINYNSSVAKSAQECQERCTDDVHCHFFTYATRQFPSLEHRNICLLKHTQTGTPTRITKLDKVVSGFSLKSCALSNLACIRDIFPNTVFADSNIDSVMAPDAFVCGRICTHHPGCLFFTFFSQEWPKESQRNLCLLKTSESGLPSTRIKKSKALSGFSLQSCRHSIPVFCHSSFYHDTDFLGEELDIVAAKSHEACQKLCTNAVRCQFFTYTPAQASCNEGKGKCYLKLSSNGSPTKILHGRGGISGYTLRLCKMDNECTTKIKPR
# Text: Biological Example 1: Factor XIa Inhibition Assay Utilizing a Fluorophore-Quencher Pair Peptide Substrate
# A fluorescence intensity (FLINT) based assay was used to monitor inhibition of Factor XIa. The peptide substrate, 5Fam-KLTRAETV-K5Tamra (purchased from New England Peptide) was chosen based on the FXI sequence. Conversion of zymogen FXI to its activated form, FXIa, occurs by proteolytic cleavage by […] at two sites, Arg146 and Arg180. The custom peptide used in this assay was based on the Arg146 cleavage site of FXI. The peptide substrate was designed with a fluorophore-quencher pair, where the fluorescence is quenched until FXIa cleaves the 8-mer peptide after the Arg residue.
# The Factor XIa FLINT assay was used with the following 5Fam-KLTRAETV-K5Tamra assay buffer: 50 mM Tris, pH 7.5, 100 mM NaCl, 5 mM CaCl2, 0.1 mg/mL BSA, 0.03% CHAPS. Assay buffer was prepared by mixing all ingredients fresh. 5Fam-KLTRAETV-K5Tamra peptide substrate was first prepared at 10 mM in 100% DMSO, then diluted to 3 mM in 100% DMSO. Assay buffer was then added directly to the 3 mM stock of substrate to prepare the 30 μM 2× working concentration (15 μM final concentration). The 2× Factor XIa stock solution was prepared by diluting 6.562 μM stock in 1× assay buffer for a […].
# Test compound(s) were run in an 11-point, 3-fold serial dilution with a final top compound concentration of 100 nM. Final DMSO in assay was 2%. FXIa was preincubated with compound for 30-minutes and then substrate was added to initiate the reaction. The assay was run with kinetic (KIN) reads at 5 min intervals over 30 minutes. […] More specifically, the assay was run as follows: • 100 nL of 0.01 mM test compound was dispensed into black 384-well non-binding Greiner BioOne 784900 plate for 0.1 μM final concentration, • 5 μL of 1× assay buffer was dispensed to column 24 (low control) and 5 μL 2× Factor XIa solution was dispensed to columns 1-23 (column 23 high control); • the plate was centrifuged with a “cover” plate at 500 rpm for 1 min • the plate was pre-incubated for 30 minutes at room temperature with plate covered; • 5 μL of 2×5Fam-KLTRAETV-K5Tamra peptide substrate was dispensed into the entire plate, columns 1-24; • the plate was centrifuged with a “cover” plate at 500 rpm for 1 min; • the plate was read monitoring fluorescence intensity on the BMG PHERAStar at room temperature, using fluorescence module 485 nm/520 nm.
# (§1) Percent inhibition (IC50) curves were generated per compound tested, and data was analyzed using a 4-parameter logistic fit using GeneData Screener. The relative fluorescence unit (RFU) values were normalized to percent inhibition using the following equation: % inhibition=((HC−LC)−(compound−LC)/(HC−LC))*100
# where LC—low control=mean signal of no Factor XIa or 100% inhibition of Factor XIa; HC—high control=mean signal of Factor XIa+5Fam-KLTRAETV-K5Tamra peptide substrate with DMSO only.
# (§2) An 11-point dose response curve for the test compound(s) was generated using GENDATA to determine IC50 value based on the following equation: Y=Bottom+(Top−Bottom)/(1+10^((log IC50−X)*HillSlope))
# (§3) where Y is the % inhibition in the presence of X inhibitor concentration, Top=high control=mean signal of Factor XIa+5Fam-KLTRAETV-K5Tamra peptide substrate with DMSO only; Bottom=low control—mean signal of no Factor XIa or 100% inhibition of Factor XIa; HillSlope—Hill coefficient; and IC50=concentration of compound with 50% inhibition in relation to top/high control.
# human plasma kallikrein = human plasma kallikrein (Homo sapiens, UniProt P03952); test: Kallikrein inhibition assay utilizing a quenched AMC peptide substrate (FLINT); type: biochemical; settings: 11-point, 3-fold serial dilution, top 1 μM; 30 min preincubation; 2 nM kallikrein; 50 μM Z-Gly-Pro-Arg-AMC; kinetic reads over 30 min
# human plasma kallikrein, sequence (P03952 391-638 limits assumed): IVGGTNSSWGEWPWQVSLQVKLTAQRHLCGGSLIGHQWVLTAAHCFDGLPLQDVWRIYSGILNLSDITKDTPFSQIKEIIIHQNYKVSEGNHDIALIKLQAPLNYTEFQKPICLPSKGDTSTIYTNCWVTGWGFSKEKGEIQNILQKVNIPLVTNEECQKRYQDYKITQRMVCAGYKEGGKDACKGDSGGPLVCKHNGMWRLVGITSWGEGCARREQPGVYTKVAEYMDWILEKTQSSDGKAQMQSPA
# human plasma kallikrein, sequence (P03952 20-390 partner limits assumed): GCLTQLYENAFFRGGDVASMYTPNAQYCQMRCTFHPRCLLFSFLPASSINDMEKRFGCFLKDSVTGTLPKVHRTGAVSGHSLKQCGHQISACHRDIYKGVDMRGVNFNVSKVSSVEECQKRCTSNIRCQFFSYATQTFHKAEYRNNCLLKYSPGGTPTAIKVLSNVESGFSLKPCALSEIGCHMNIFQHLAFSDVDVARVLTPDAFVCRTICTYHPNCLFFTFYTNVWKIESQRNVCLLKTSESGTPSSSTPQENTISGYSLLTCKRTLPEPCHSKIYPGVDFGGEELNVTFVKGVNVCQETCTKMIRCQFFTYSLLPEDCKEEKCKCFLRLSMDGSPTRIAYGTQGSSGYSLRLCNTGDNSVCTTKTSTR
# Protocol: Biological Example 2: Kallikrein Inhibition Assay Utilizing a Quenched AMC Peptide Substrate
# A fluorescence intensity (FLINT) based assay was used to monitor inhibition of human plasma kallikrein. The peptide substrate, Z-Gly-Pro-Arg-AMC (Purchased from Bachem; Catalog #I-1150) was chosen based on its relatively low KM for kallikrein which enables running the assay at lower substrate concentrations to control background fluorescence. The kinetic parameters for this substrate were determined by fitting titration data to the Michaelis-Menten equation yielding a KM=40 μM, kcat=0.76 s^−1, and kcat/KM=18932 M^−1s^−1.
# The Kallikrein FLINT assay was used with the following Z-Gly-Pro-Arg-AMC assay buffer: 50 mM Tris, pH 7.5, 100 mM NaCl, 5 mM CaCl2, 0.1 mg/mL BSA, 0.03% CHAPS. Assay buffer was prepared by mixing all ingredients fresh. 2× Z-Gly-Pro-Arg-AMC peptide substrate was prepared by diluting 10 mM stock into 1× assay buffer for a 100 μM working concentration (50 μM final concentration). The 2× kallikrein stock solution was prepared by diluting 14.76 μM stock in 1× assay buffer for a 4 nM working stock solution (2 nM final concentration).
# Test compound(s) were run in an 11-point, 3-fold serial dilution with a final top compound concentration of 1 μM. Final DMSO in assay was 2%. Plasma kallikrein was pre-incubated for 30-minute with compound and then 50 μM substrate was added to initiate the reaction. The assay was run with kinetic (KIN) reads at 5 min intervals over 30 minutes. The time course was linear using 2 nM kallikrein greater than 30 minutes. More specifically, the assay was run as follows: • 100 nL of 0.1 mM test compound was dispensed into black 384-well non-binding Greiner BioOne 784900 plate for 1 μM final concentration; • 5 μL of 1× assay buffer was dispensed to columns 24 (low control) and 5 μL 2× human kallikrein enzyme solution was dispensed to columns 1-23 (column 23 high control); • the plate was centrifuged with a “cover” plate at 500 rpm for 1 min • the plate was pre-incubated for 30 minutes at room temperature with plate covered; • 5 μL of 2× Z-Gly-Pro-Arg-AMC peptide substrate was dispensed into the entire plate, columns 1-24; • the plate was centrifuged with a “cover” plate at 500 rpm for 1 min; • the plate was read monitoring fluorescence intensity on the BMG PHERAStar at room temperature, using fluorescence module 340 nm/440 nm.
# as §1
# where LC—low control=mean signal of […] 100% inhibition of human kallikrein enzyme; HC—high control=mean signal of […]+Z-Gly-Pro-Arg-AMC peptide substrate with DMSO only.
# as §2
# as §3, with “human kallikrein enzyme+Z-Gly-Pro-Arg-AMC” for “Factor XIa+5Fam-KLTRAETV-K5Tamra”, “human kallikrein enzyme” for “Factor XIa”, “human kallikrein enzyme;” for “Factor XIa;”
IC50 (Factor XIa),IC50 (human plasma kallikrein),SMILES
> 50 nM,637 nM,CN(C)c1ccnc2ccc(NC(=O)C3CCC4CC(c5c(-n6cc(C(F)(F)F)nn6)ccc(Cl)c5F)=CC(=O)N43)cc12 (stereo not shown) [compound 89]
4.2 nM,19.3 nM,"O=C(Nc1ccc2nn(C(F)F)cc2c1)[C@@H]1CCC2CC(c3c(-n4cnnn4)ccc(Cl)c3F)=CC(=O)N21 (single isomer, unassigned) [ID No. 22, (3S,8aS*)-7-(3-Chloro-2-fluoro-6-(1H-tetrazol-1-yl)phenyl)-N-(2-(difluoromethyl)-2H-indazol-5-yl)-5-oxo-1,2,3,5,8,8a-hexahydroindolizine-3-carboxamide]"
> 50 nM,,O=C(O)C1CCc2ccc(NC(=O)[C@@H]3CC[C@@H]4CC(c5c(-n6cc(C(F)(F)F)nn6)ccc(Cl)c5F)=CC(=O)N43)cc21 (stereo partly shown) [compound 104]
21.4 nM,86.3 nM,"O=C(Nc1ccc(-n2ccnn2)cc1)[C@@H]1CCC2CC(c3c(-n4cnnn4)ccc(Cl)c3F)=CC(=O)N21 (mixture of isomers) [ID No. 48, (3S)—N-(4-(1H-1,2,3-triazol-1-yl)phenyl)-7-(3-chloro-2-fluoro-6-(1H-tetrazol-1-yl)phenyl)-5-oxo-1,2,3,5,8,8a-hexahydroindolizine-3-carboxamide]"
183 nM,,"Cn1oc(=O)nc1-c1ccc(NC(=O)[C@@H]2CCC3CC(c4c(-n5cnnn5)ccc(Cl)c4F)=CC(=O)N32)cc1 (mixture of isomers) [ID No. 67, (3S)-7-[3-Chloro-2-fluoro-6-(tetrazol-1-yl)phenyl]-N-[4-(2-methyl-5-oxo-1,2,4-oxadiazol-3-yl)phenyl]-5-oxo-2,3,8,8a-tetrahydro-1H-indolizine-3-carboxamide]"
17.8 nM,27 nM,"CC1C[C@@H](C(=O)Nc2ccc3nn(C)cc3c2)N2C(=O)C=C(c3c(-n4cnnn4)ccc(Cl)c3F)CC12 (mixture of isomers) [ID No. 83, (3S)-7-[3-Chloro-2-fluoro-6-(tetrazol-1-yl)phenyl]-1-methyl-N-(2-methyl-2H-indazol-5-yl)-5-oxo-2,3,8,8a-tetrahydro-1H-indolizine-3-carboxamide]"
23.3 nM,274 nM,"O=C(Nc1ccc(-c2nc(=O)o[nH]2)cc1F)[C@@H]1CCC2CC(c3c(-n4cnnn4)ccc(Cl)c3F)=CC(=O)N21 (mixture of isomers) [ID No. 47, (3S)-7-(3-Chloro-2-fluoro-6-(1H-tetrazol-1-yl)phenyl)-N-(2-fluoro-4-(5-oxo-2,5-dihydro-1,2,4-oxadiazol-3-yl)phenyl)-5-oxo-1,2,3,5,8,8a-hexahydroindolizine-3-carboxamide]"
42.2 nM,128 nM,[2H]c1nnnn1-c1ccc(Cl)c(F)c1C1=CC(=O)N2C(CCC2C(=O)Nc2ccc3c(c2)C2(CC2)C(=O)N3)C1 (stereo not shown) [compound 96]
0.8 nM,19.2 nM,"O=C(Nc1ccc(-c2nnn[nH]2)cc1)[C@@H]1CCC2CC(c3c(-n4cnnn4)ccc(Cl)c3F)=CC(=O)N21 (single isomer, unassigned) [ID No. 66, (3S,8aR*)-7-[3-Chloro-2-fluoro-6-(tetrazol-1-yl)phenyl]-5-oxo-N-[4-(1H-tetrazol-5-yl)phenyl]-2,3,8,8a-tetrahydro-1H-indolizine-3-carboxamide]"
30.8 nM,,"O=C(Nc1ccc(-c2nc(=O)o[nH]2)cc1)[C@@H]1CCC2CC(c3c(OCC(F)(F)F)ccc(Cl)c3F)=CC(=O)N21 (mixture of isomers) [ID No. 40, (3S)-7-(3-Chloro-2-fluoro-6-(2,2,2-trifluoroethoxy)phenyl)-5-oxo-N-(4-(5-oxo-2,5-dihydro-1,2,4-oxadiazol-3-yl)phenyl)-1,2,3,5,8,8a-hexahydroindolizine-3-carboxamide]"
58.4 nM,,"Cn1ccnc1-c1ccc(NC(=O)[C@@H]2CCC3CC(c4c(-n5cnnn5)ccc(Cl)c4F)=CC(=O)N32)cc1 (mixture of isomers) [ID No. 78, (3S)-7-[3-Chloro-2-fluoro-6-(tetrazol-1-yl)phenyl]-N-[4-(1-methylimidazol-2-yl)phenyl]-5-oxo-2,3,8,8a-tetrahydro-1H-indolizine-3-carboxamide]"
> 50 nM,,"COCCNC(=O)c1ccc(NC(=O)[C@@H]2CCC3CC(c4c(-n5cnnn5)ccc(Cl)c4F)=CC(=O)N32)cc1F (single isomer, unassigned) [ID No. 94, (3S,8aS*)-7-(3-chloro-2-fluoro-6-(1H-tetrazol-1-yl)phenyl)-N-(3-fluoro-4-((2-methoxyethyl)carbamoyl)phenyl)-5-oxo-1,2,3,5,8,8a-hexahydroindolizine-3-carboxamide]"
> 100 nM,,CO[C@H]1C[C@@H](C(=O)Nc2ccc3nn(C)cc3c2)N2C(=O)C=C(c3c(-n4cnnn4)ccc(Cl)c3F)CC12 (mixture of isomers) [compound 110]
639 nM,,"C[C@@H]1C[C@@H](C(=O)Nc2ccc3nccnc3c2)N2C(=O)C=C(c3c(-n4cnnn4)ccc(Cl)c3F)C[C@H]12 (single isomer, unassigned) [ID No. 81, (1R*,3S,8aR*)-7-[3-Chloro-2-fluoro-6-(tetrazol-1-yl)phenyl]-1-methyl-5-oxo-N-quinoxalin-6-yl-2,3,8,8a-tetrahydro-1H-indolizine-3-carboxamide]"
136 nM,,"CO[C@H]1C[C@@H](C(=O)Nc2ccc3n[nH]cc3c2)N2C(=O)C=C(c3c(-n4cnnn4)ccc(Cl)c3F)CC12 (mixture of isomers) [ID No. 27, (1S,3S)-7-[3-Chloro-2-fluoro-6-(tetrazol-1-yl)phenyl]-N-(2H-indazol-5-yl)-1-methoxy-5-oxo-2,3,8,8a-tetrahydro-1H-indolizine-3-carboxamide]"
